Source: PubChem BioAssay AID179 (DTP/NCI, 2004)
Active and inactive are the calls of the source.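 The calls were made as follows: active = compounds giving half or more protection of infected cells from virus-caused growth loss, again on retest; inactive = the rest.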

System: CEM cells HIV-1 protection, formazan growth assay
Test: NCI AIDS Antiviral Assay
Conditions: for IC50: measured here: growth of uninfected CEM cells
Procedure, shortened: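 CEM (human) cells, HIV-1 infected vs uninfected, 5-point dosing, formazan growth read-out. Retest threshold 50% protection.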

## COc1ccc(N2C(=O)/C(=C\c3ccc(N(CCC#N)CCC#N)cc3)N=C2COc2ccccc2)cc1
  EC50: > 26.9 µM
  IC50: > 26.9 µM

## CN(C)c1ccc(/C=C(/NC(=O)c2ccccc2)c2nc3ccc(Cl)cc3[nH]2)cc1
  EC50: > 17.4 µM
  IC50: > 17.4 µM

## CCOC(=O)NC(=O)c1cn(CCN2CCN(C(=O)CCCCCCCCCCNc3ncnc4c3ncn4C3OC(CO)C(O)C3O)CC2)c(=O)[nH]c1=O (stereo not drawn)
  outcome: inactive

## N#CC(/C(CCC(=O)Nc1ccc(Cl)cc1)=N/NC(=O)c1cc2ccccc2cc1O)c1ccccc1 (stereo not drawn)
  EC50: > 51.3 µM
  IC50: 12.6 µM

## COc1ccc(C2CC(c3ccc4ccccc4c3O)=NN2)cc1OC (stereo not drawn)
  EC50: > 200 µM
  IC50: 42.7 µM

## CCN(CC)CC1CN=C(N)O1 (stereo not drawn)
  EC50: > 200 µM
  IC50: > 200 µM

## C=C1CC(Cn2cc(C)c(=O)[nH]c2=O)(c2ccc(-c3ccccc3)cc2)OC1=O (stereo not drawn)
  EC50: > 20 µM
  IC50: 0.288 µM

## C[C@H]1CCC/C=C/[C@@H]2C[C@H](O)C[C@H]2[C@H](O)/C=C/C(=O)O1
  EC50: > 891 µM
  IC50: 0.282 µM

## Cn1cc(NC(=O)Nc2cc(C(=O)Nc3cc(C(=O)Nc4ccc(S(=O)(=O)O)c5cc(S(=O)(=O)O)cc(S(=O)(=O)O)c45)n(C)c3)n(C)c2)cc1C(=O)Nc1cc(C(=O)Nc2ccc(S(=O)(=O)O)c3cc(S(=O)(=O)O)cc(S(=O)(=O)O)c23)n(C)c1
  outcome: active

## CCOC(=O)C(NCc1cccc(C(F)(F)F)c1)(NC(=O)c1ccccc1)C(F)(F)F (stereo not drawn)
  EC50: > 200 µM
  IC50: 18.6 µM

## O=S1(=O)OC(c2cc(Br)c(O)c(Br)c2)(c2cc(Br)c(O)c(Br)c2)c2c(Br)c(Br)c(Br)c(Br)c21
  outcome: inactive

## COc1nc(NC2OC(CO)C(O)C(O)C2O)cc(=O)n1C (stereo not drawn)
  outcome: inactive

## CCOC(=O)c1nc2cc(C(F)(F)F)ccc2nc1Nc1ccc(OC)c(OC)c1
  outcome: inactive

## COc1ccc(/C=C2\C(=O)N(C(=O)c3ccc(NC(C)=O)cc3)N=C2C)cc1
  EC50: > 19.1 µM
  IC50: > 19.1 µM

## COc1ccc(/C(Cl)=C(\C=O)c2ccccc2)cc1OC
  outcome: inactive

## COc1cc2c3c(c1OC)-c1ccccc1C(C(O)c1ccccc1)C3N(C)CC2 (stereo not drawn)
  outcome: inactive

## O=S(=O)(O)SCNCNCCSCc1ccccc1
  EC50: > 138 µM
  IC50: 45.7 µM

## CCOC(=O)Cc1cc(=O)n(C)c2ccccc12
  EC50: > 200 µM
  IC50: > 200 µM

## COc1ccc(/C=N/Nc2nnc3c4ccccc4c4ncccc4c3n2)cc1
  EC50: > 501 µM
  IC50: > 501 µM

## CC(=O)Nc1cc(S(=O)(=O)O)cc2c(N=Nc3ccc(C(=O)Nc4ccc(N=Nc5ccc(S(=O)(=O)O)cc5)cc4)cc3)c(S(=O)(=O)O)cc(O)c12
  outcome: inactive

## S=C1NC2=S(N=C(Nc3ccccc3)N2c2ccccc2)S1 (stereo not drawn)
  outcome: inactive

## O=c1c2cc3c(cc2c2cccc4ccn1c42)OCO3
  outcome: inactive

## COC(=O)C1C2C/C(=N\O)C1C2 (stereo not drawn)
  EC50: > 501 µM
  IC50: > 501 µM

## Cc1cc(C)nc(NC(=S)Nc2ccccc2Cl)c1
  EC50: > 200 µM
  IC50: > 200 µM

## C1=C(N2CCOCC2)/C(=C2\SC(=Nc3ccccc3)C(=Nc3ccccc3)N2c2ccccc2)CC1
  EC50: > 200 µM
  IC50: 138 µM

## CC(NC1=NCCO1)c1cccs1 (stereo not drawn)
  EC50: > 200 µM
  IC50: 138 µM

## O=C1[C@H](Cl)[C@H]2c3cc4ccccc4nc3Oc3ccccc3N12
  EC50: > 22.4 µM
  IC50: > 22.4 µM

## CCN(CC)C(=O)N1CN(c2ccccc2)C2(CCN(CCCC3(c4ccc(F)cc4)OCCO3)CC2)C1=O
  EC50: > 200 µM
  IC50: 27.5 µM

## CCCCCCCCCC=C(c1cc(Cl)c(O)c(C(=O)O)c1)c1cc(Cl)c(O)c(C(=O)O)c1
  EC50: 45.7 µM
  IC50: 49 µM

## O=S1(=O)c2ccccc2-c2ccccc21
  outcome: inactive

## CCOP(=O)(CCCC(O)CNc1nc(N)nc(Cl)c1N=Nc1ccc(Cl)cc1)OCC (stereo not drawn)
  EC50: > 200 µM
  IC50: 5.75 µM

## CC(=O)OC1CCn2nnc(COC(=O)NC(C)C)c21 (stereo not drawn)
  outcome: inactive

## O=C(O)C1Cc2nc[nH]c2CN1 (stereo not drawn)
  outcome: inactive
